We go through 24 compounds from patent US20070049593A1 (priority 2004, published 2007).

The IC50 is the concentration needed to halve the response being measured.

Counter-ions that a name gives are not always drawn.

In one test the target is T1, HCV polymerase (Hepatitis C virus genotype 1b, UniProt P26663).
T1 construct: a region encoding NS5B (J Virol 1991 March, 65(3), 1105-13, 544 amino acids after deletion of 47 amino acids on the C-terminal); 6xHis (C); made in house; host or cells: Escherichia coli
T1 sequence (P26663 2420-2963): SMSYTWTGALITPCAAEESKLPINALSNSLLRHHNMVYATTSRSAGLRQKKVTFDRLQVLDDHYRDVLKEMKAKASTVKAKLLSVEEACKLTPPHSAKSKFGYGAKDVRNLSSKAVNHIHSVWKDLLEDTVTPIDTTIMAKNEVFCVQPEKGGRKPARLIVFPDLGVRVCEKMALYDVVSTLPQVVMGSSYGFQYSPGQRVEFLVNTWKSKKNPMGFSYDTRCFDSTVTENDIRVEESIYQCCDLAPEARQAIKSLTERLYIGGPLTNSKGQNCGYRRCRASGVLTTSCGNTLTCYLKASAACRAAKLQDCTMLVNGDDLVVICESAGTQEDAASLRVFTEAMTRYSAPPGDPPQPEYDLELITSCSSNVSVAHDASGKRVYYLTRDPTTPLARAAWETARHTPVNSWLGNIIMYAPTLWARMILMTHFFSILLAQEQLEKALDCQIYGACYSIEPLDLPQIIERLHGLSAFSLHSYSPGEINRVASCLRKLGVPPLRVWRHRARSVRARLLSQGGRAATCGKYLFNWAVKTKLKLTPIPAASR
The test is described as follows: biochemical. Also on record: species or system HCV BK strain.
Conditions: not given
The method in brief:
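Recombinant HCV BK-strain NS5B (C-terminal 47 aa deleted, His6-tagged, E. coli), 0.5 μg/ml, run with 5 μg/ml in vitro-transcribed RNA template (polyU/3′X), ATP/GTP/CTP 50 μM, UTP 2 μM plus [3H]UTP, pH 7.5, 25° C, 90 min. TCA-precipitated RNA counted by scintillation; IC50 from activity with vs without compound.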
With `COC(=O)C(CN1CCC(O)CC1)NC(=O)c1ccc2c(C3CCCCC3)c3n(c2c1)CCOc1cc(OC)ccc1-3` (stereo not drawn) [Example 2-379, methyl 2-[(12-cyclohexyl-3-methoxy-6,7-dihydro-5-oxa-7a-azadibenzo[a,e]azulene-9-carbonyl)amino]-3-(4-hydroxypiperidin-1-yl)propionate monohydrochloride], the IC50 fell in the range of 100 to 1000 nM.

`COc1ccc2c(c1)OCCn1c-2c(C2CCCCC2)c2ccc(C(=O)NC(C)(C)c3nc4cc(F)ccc4[nH]3)cc21` [Example 2-380, N-[1-(5-fluoro-1H-benzimidazol-2-yl)-1-methylethyl]-12-cyclohexyl-3-methoxy-6,7-dihydro-5-oxa-7a-azadibenzo[a,e]azulene-9-carboxamide] yielded an IC50 below 100 nM.

In turn, `COc1ccc2c(c1)OCCn1c-2c(C2CCCCC2)c2ccc(C(=O)N[C@@H](Cc3ccc(O)cc3)c3nccs3)cc21` [Example 2-381, N—(S)-[2-(4-hydroxyphenyl)-1-(thiazol-2-yl)ethyl]-12-cyclohexyl-3-methoxy-6,7-dihydro-5-oxa-7a-azadibenzo[a,e]azulene-9-carboxamide] gave an IC50 below 100 nM.

Take `CNC(=O)COc1ccc(C[C@H](NC(=O)c2ccc3c(C4CCCCC4)c4n(c3c2)CCOc2cc(OC)ccc2-4)C(=O)OC)cc1` [Example 2-382, methyl (S)-2-[(12-cyclohexyl-3-methoxy-6,7-dihydro-5-oxa-7a-azadibenzo[a,e]azulene-9-carbonyl)amino]-3-[4-(methylcarbamoylmethoxy)phenyl]propionate]: the IC50 is below 100 nM.

`COC(=O)[C@H](Cc1ccc(OCC(=O)N(C)C)cc1)NC(=O)c1ccc2c(C3CCCCC3)c3n(c2c1)CCOc1cc(OC)ccc1-3` [Example 2-383, methyl (S)-2-[(12-cyclohexyl-3-methoxy-6,7-dihydro-5-oxa-7a-azadibenzo[a,e]azulene-9-carbonyl)amino]-3-[4-(dimethylcarbamoylmethoxy)phenyl]propionate] gave an IC50 below 100 nM.

The compound `CNC(=O)[C@H](Cc1ccc(NC(=O)OC)cc1)NC(=O)c1ccc2c(C3CCCCC3)c3n(c2c1)CCOc1cc(OC)ccc1-3` [Example 2-384, methyl (4-{(S)-2-[(12-cyclohexyl-3-methoxy-6,7-dihydro-5-oxa-7a-azadibenzo[a,e]azulene-9-carbonyl)amino]-2-(methylcarbamoyl)ethyl}phenyl)carbamate] yielded an IC50 below 100 nM.

The compound `COc1ccc2c(c1)OCCn1c-2c(C2CCCCC2)c2ccc(C(=O)NC(C)(C)c3nc4cc(C(=O)N5CCC(O)CC5)ccc4[nH]3)cc21` [Example 2-386, N-{1-[5-(4-hydroxypiperidine-1-carbonyl)-1H-benzimidazol-2-yl]-1-methylethyl}-12-cyclohexyl-3-methoxy-6,7-dihydro-5-oxa-7a-azadibenzo[a,e]azulene-9-carboxamide] came in with an IC50 below 100 nM.

`COc1ccc2c(c1)OCCn1c-2c(C2CCCCC2)c2ccc(C(=O)N[C@@H](Cc3ccc(O)cc3)C(=O)NCCO)cc21` [Example 2-387, N—[(S)-1-(2-hydroxyethylcarbamoyl)-2-(4-hydroxyphenyl)ethyl]-12-cyclohexyl-3-methoxy-6,7-dihydro-5-oxa-7a-azadibenzo[a,e]azulene-9-carboxamide] yielded a half-inhibitory concentration (IC50) below 100 nM.

Take `COc1ccc2c(c1)OCCn1c-2c(C2CCCCC2)c2ccc(C(=O)N[C@@H](Cc3ccc(O)cc3)c3nc(C)no3)cc21` [Example 2-388, N—[(S)-2-(4-hydroxyphenyl)-1-(3-methyl-1,2,4-oxadiazol-5-yl)ethyl]-12-cyclohexyl-3-methoxy-6,7-dihydro-5-oxa-7a-azadibenzo[a,e]azulene-9-carboxamide]: the IC50 was below 100 nM.

Take `COc1ccc2c(c1)OCCn1c-2c(C2CCCCC2)c2ccc(C(=O)N[C@@H](Cc3ccc(O)cc3)C(=O)NCCN(C)C)cc21` [Example 2-389, N—[(S)-1-(2-dimethylaminoethylcarbamoyl)-2-(4-hydroxyphenyl)ethyl]-12-cyclohexyl-3-methoxy-6,7-dihydro-5-oxa-7a-azadibenzo[a,e]azulene-9-carboxamide]: the IC50 is below 100 nM.

As for `COc1ccc2c(c1)OCCn1c-2c(C2CCCCC2)c2ccc(C(=O)NC(C)(C)c3nc4cc(C(=O)NCCO)ccc4[nH]3)cc21` [Example 2-390, N-{1-[5-(2-hydroxyethylcarbamoyl)-1H-benzimidazol-2-yl]-1-methylethyl}-12-cyclohexyl-3-methoxy-6,7-dihydro-5-oxa-7a-azadibenzo[a,e]azulene-9-carboxamide], the IC50 is below 100 nM.

For the compound `COC(=O)[C@H](Cc1ccc(NC(=O)N(C)C)cc1)NC(=O)c1ccc2c(C3CCCCC3)c3n(c2c1)CCOc1cc(OC)ccc1-3` [Example 2-391, methyl (S)-2-[(12-cyclohexyl-3-methoxy-6,7-dihydro-5-oxa-7a-azadibenzo[a,e]azulene-9-carbonyl)amino]-3-[4-(3,3-dimethylureido)phenyl]propionate], the half-maximal inhibitory concentration (IC50) is below 100 nM.

`COC(=O)[C@H](Cc1ccc(OCCCO)cc1)NC(=O)c1ccc2c(C3CCCCC3)c3n(c2c1)CCOc1cc(OC)ccc1-3` [Example 2-392, methyl (S)-2-[(12-cyclohexyl-3-methoxy-6,7-dihydro-5-oxa-7a-azadibenzo[a,e]azulene-9-carbonyl)amino]-3-[4-(3-hydroxypropoxy)phenyl]propionate]: the IC50 is below 100 nM.

For `COC(=O)C(Cc1ccc(CO)cc1)NC(=O)c1ccc2c(C3CCCCC3)c3n(c2c1)CCOc1cc(OC)ccc1-3` (stereo not drawn) [Example 2-393, methyl 2-[(12-cyclohexyl-3-methoxy-6,7-dihydro-5-oxa-7a-azadibenzo[a,e]azulene-9-carbonyl)amino]-3-(4-hydroxymethylphenyl)propionate], the IC50 was below 100 nM.

Compound `COc1ccc2c(c1)OCCn1c-2c(C2CCCCC2)c2ccc(C(=O)NC(C)(C)c3nc4cccnc4[nH]3)cc21` [Example 2-394, N-[1-(3H-imidazo[4,5-b]pyridin-2-yl)-1-methylethyl]-12-cyclohexyl-3-methoxy-6,7-dihydro-5-oxa-7a-azadibenzo[a,e]azulene-9-carboxamide] had an IC50 below 100 nM.

The compound `COc1ccc2c(c1)OCCn1c-2c(C2CCCCC2)c2ccc(C(=O)NC(C)(C)c3nc4cc(C(=O)O)ccc4n3CCN3CCOCC3)cc21` [Example 2-395, 2-{1-[(12-cyclohexyl-3-methoxy-6,7-dihydro-5-oxa-7a-azadibenzo[a,e]azulene-9-carbonyl)amino]-1-methylethyl]-1-[2-(morpholin-4-yl)ethyl]-1H-benzimidazole-5-carboxylic acid] showed an IC50 below 100 nM.

Compound `CNC(=O)c1ccc2[nH]c(C(C)(C)NC(=O)c3ccc4c(C5CCCCC5)c5n(c4c3)CCOc3cc(OC)ccc3-5)nc2c1` [Example 2-396, N-[1-methyl-1-(5-methylcarbamoyl-1H-benzimidazol-2-yl)ethyl]-12-cyclohexyl-3-methoxy-6,7-dihydro-5-oxa-7a-azadibenzo[a,e]azulene-9-carboxamide] returned an IC50 below 100 nM.

In turn, `COc1ccc2c(c1)OCCn1c-2c(C2CCCCC2)c2ccc(C(=O)NC3(C(=O)Nc4ccc(C(=O)O)cc4)CCN(C)CC3)cc21` [Example 2-397, 4-([4-[(12-cyclohexyl-3-methoxy-6,7-dihydro-5-oxa-7a-azadibenzo[a,e]azulene-9-carbonyl)amino]-1-methylpiperidine-4-carbonyl)amino)benzoic acid] showed an IC50 below 100 nM.

For the compound `CCOC(=O)c1ccc(-c2cnc(C(C)(C)NC(=O)c3ccc4c(C5CCCCC5)c5n(c4c3)CCOc3cc(OC)ccc3-5)[nH]2)cc1` [Example 2-398, ethyl 4-(2-{1-[(12-cyclohexyl-3-methoxy-6,7-dihydro-5-oxa-7a-azadibenzo[a,e]azulene-9-carbonyl)amino]-1-methylethyl}-3H-imidazol-4-yl)benzoate], the IC50 was below 100 nM.

`COc1ccc2c(c1)OCCn1c-2c(C2CCCCC2)c2ccc(C(=O)NC(C)(C)c3ncc(-c4ccc(C(=O)O)cc4)[nH]3)cc21` [Example 2-399, 4-(2-{1-[(12-cyclohexyl-3-methoxy-6,7-dihydro-5-oxa-7a-azadibenzo[a,e]azulene-9-carbonyl)amino]-1-methylethyl}-3H-imidazol-4-yl)benzoic acid] gave an IC50 below 100 nM.

Compound `COc1ccc2c(c1)OCCn1c-2c(C2CCCCC2)c2ccc(C(=O)NC3(C(=O)O)CCOCC3)cc21` [Example 2-400, 4-[(12-cyclohexyl-3-methoxy-6,7-dihydro-5-oxa-7a-azadibenzo[a,e]azulene-9-carbonyl)amino]tetrahydropyran-4-carboxylic acid] returned an IC50 below 100 nM.

Compound `COc1ccc2c(c1)OCCn1c-2c(C2CCCCC2)c2ccc(C(=O)NC3(C(=O)Nc4ccc(/C=C/C(=O)O)cc4)CCOCC3)cc21` [Example 2-401, (E)-3-[4-({4-[(12-cyclohexyl-3-methoxy-6,7-dihydro-5-oxa-7a-azadibenzo[a,e]azulene-9-carbonyl)amino]tetrahydropyran-4-carbonyl}amino)phenyl]acrylic acid] registered an IC50 below 100 nM.

The compound `COc1ccc2c(c1)OCCn1c-2c(C2CCCCC2)c2ccc(C(=O)NC3(C(=O)Nc4ccc(C(=O)O)cc4)CCOCC3)cc21` [Example 2-402, 4-({4-[(12-cyclohexyl-3-methoxy-6,7-dihydro-5-oxa-7a-azadibenzo[a,e]azulene-9-carbonyl)amino]tetrahydropyran-4-carbonyl}amino)benzoic acid] displayed an IC50 below 100 nM.

Still in this test, the particulars now being: 25° C., 90 min; [5,6-3H]UTP incorporation into RNA; read-out: HCV polymerase inhibitory activity IC50.
Regarding `COc1ccc2c(c1)OCCn1c-2c(C2CCCCC2)c2ccc(C(=O)N[C@@H](Cc3c[nH]c4ccc(O)cc34)c3csc(C)n3)cc21` [Example 2-385, [(S)-2-(5-hydroxy-1H-indol-3-yl)-1-(2-methylthiazol-4-yl)ethyl]-12-cyclohexyl-3-methoxy-6,7-dihydro-5-oxa-7a-azadibenzo[a,e]azulene-9-carboxamide], the IC50 is below 100 nM.
